Experiments:
[1] = biological target: T1, human α2a adrenergic receptor (Homo sapiens, UniProt P08913); assay: α2 agonist activity: inhibition of forskolin-stimulated cAMP synthesis, α2a cells; format: cell-based; conditions: for α2a IA (Intrinsic Activity): inhibition of forskolin-stimulated cAMP, cloned human α2a
T1 construct: expressed in transfected cells; host or cells: LM(tk−) cells (L-α2A, ATCC CRL-11180), vector pCEXV-3
T1 sequence (P08913 1-465): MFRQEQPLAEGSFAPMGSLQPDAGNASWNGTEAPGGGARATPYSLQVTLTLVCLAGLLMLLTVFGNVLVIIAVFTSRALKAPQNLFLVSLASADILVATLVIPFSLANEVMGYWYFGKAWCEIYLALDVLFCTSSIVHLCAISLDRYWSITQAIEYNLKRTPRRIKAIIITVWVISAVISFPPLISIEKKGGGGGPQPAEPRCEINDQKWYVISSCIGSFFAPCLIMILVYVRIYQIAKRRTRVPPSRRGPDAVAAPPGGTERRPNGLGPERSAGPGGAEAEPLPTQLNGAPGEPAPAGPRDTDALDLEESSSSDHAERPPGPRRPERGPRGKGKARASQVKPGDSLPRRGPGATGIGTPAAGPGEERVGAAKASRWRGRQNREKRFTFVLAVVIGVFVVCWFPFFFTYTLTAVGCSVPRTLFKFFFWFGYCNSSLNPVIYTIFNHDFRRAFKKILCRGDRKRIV
Method: (§1) Binding and functional assays were performed using stably transfected cells expressing human α adrenergic receptors. Equilibrium competition binding assays were performed with membrane preparations from cultured LM(tk−) cells stably transfected with the cloned human adrenoceptor subtypes except for a21, which was expressed In Y-1 cells, using [^3H]prazosin for α1 receptors and [^3H]rauwolscine for […].
(§2) These cell lines were prepared by transfecting cloned cDNA or cloned genomic DNA or constructs containing both genomic DNA and cDNA encoding the human a adrenergic receptors as described below.
(§3) The agonist activity (expressed as pEC50) was measured as a function of the ability to inhibit the forskolin-stimulated synthesis of cyclic adenosine monophosphate (cAMP). The stably transfected cells were incubated in Ham's F10 with 5 mM theophylline, 10 mM HEPES, 17 mM pargyline, and/or appropriate concentrations of forskolin for 20 min. at 37° C. in 5% CO2. The tested compounds were then added to a final concentration of 0.001 nM to 1 mM and incubated for an additional 15 min. at 37° C. in 5% CO2. The medium was aspirated and the reaction was stopped by the addition of 100 mM HCl. […] The plates were stored at 4° C. for 15 min. and assayed to determine the linear concentration of cAMP. The appropriate dilution was interpolated from the standard curve of cold cAMP. The assessment of cAMP formation was determined by radioimmunoassay (cAMP radioimmunoassay kit; Advanced magnetics, Cambridge, Mass.). Radioactivity was quantified using a Packard COBRA Auto Gamma counter equipped with data reduction software.

[2] = biological target: T2, human α2b adrenergic receptor (Homo sapiens, UniProt P18089); assay: α2 agonist activity: inhibition of forskolin-stimulated cAMP synthesis, α2b cells; format: cell-based; conditions: inhibition of forskolin-stimulated cAMP, cloned human α2b; for EC50: read-out: α2b pEC50 (converted)
T2 construct: expressed in transfected cells; host or cells: stably transfected cells, vector pcEXV-3; deposited line L-NGC-α2B (ATCC CRL-10275)
T2 sequence (P18089 1-450): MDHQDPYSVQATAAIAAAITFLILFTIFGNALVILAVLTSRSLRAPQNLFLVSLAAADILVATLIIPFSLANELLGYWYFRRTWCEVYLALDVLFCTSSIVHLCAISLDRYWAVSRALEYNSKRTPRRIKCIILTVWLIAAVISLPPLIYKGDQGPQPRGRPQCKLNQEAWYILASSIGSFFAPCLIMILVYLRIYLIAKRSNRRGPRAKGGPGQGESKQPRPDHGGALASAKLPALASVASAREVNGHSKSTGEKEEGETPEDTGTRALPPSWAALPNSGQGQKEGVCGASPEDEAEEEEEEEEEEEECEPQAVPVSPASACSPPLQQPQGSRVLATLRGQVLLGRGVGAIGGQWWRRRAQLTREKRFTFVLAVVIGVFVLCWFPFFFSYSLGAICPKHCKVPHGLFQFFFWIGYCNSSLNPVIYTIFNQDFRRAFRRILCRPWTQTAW
Method: as §1, §2, §3

[3] = biological target: T1, human α2a adrenergic receptor; assay: Equilibrium competition binding, [3H]rauwolscine, cloned human α2a; conditions: cloned human α2a, membrane preparations, [3H]rauwolscine; read-out: α2a pKi (converted)
Method: as §1, §2
The insert housing this coding region was a 2.5 kb Kpnl/HindIII human placenta genomic fragment which was end-blunted by either T4 polymerase or Klenow fragment of DNA polymerase. Stable cell lines were obtained by to-transfection with the plasmid pGCcos3neo (plasmid containing the α2a receptor gene) and the plasmid pGCcos3neo (plasmid containing the aminoglycoside transferase gene) into LM(tk−), CHO, and NIH3T3 cells, using calcium phosphate technique. The cells were grown in a controlled environment (37° C., 5% CO2) as monolayers in Dulbecco's modified Eagle's Medium (GIBCO, Grand Island, N.Y.) containing 25 mM glucose and supplemented with 10% bovine calf serum, 100 units/mL penicillin g, and […] streptomycin sulfate.
(§4) The stable cell lines described above were scraped from culture flasks into 5 mL of 5 mM Tris-HCl, […], pH 7.5, and lysed by sonication. The cell lysates were centrifuged at 1,000 rpm for 5 min. at 4° C., and the supernatant was centrifuged at 30,000×g for 20 min. at 4° C. The pellet was suspended in 50 mM Tris-HCl, 1 mM MgCl2, and 0.1% ascorbic acid at pH 7.5. Binding of the α2 antagonist [^3H]rauwolscine (0.5 nM) or the α1 antagonist [^3H]prazosin (0.5 nM) to membrane preparations of LM(tk−) cells was done in a final volume of 0.25 mL and incubated at 37° C. for 20 min. Nonspecific binding was determined in the presence of […]. The reaction was stopped by filtration through GF/B filters using a cell harvester.

[4] = biological target: T2, human α2b adrenergic receptor; assay: Equilibrium competition binding, [3H]rauwolscine, cloned human α2b; conditions: cloned human α2b, membrane preparations, [3H]rauwolscine; read-out: α2b pKi (converted)
Method: as §1, §2
Stable cell lines were selected as described above.
as §4

[5] = biological target: T3, human α2c adrenergic receptor (Homo sapiens, UniProt P18825); assay: α2 agonist activity: inhibition of forskolin-stimulated cAMP synthesis, α2c cells; format: cell-based; conditions: inhibition of forskolin-stimulated cAMP, cloned human α2c; for EC50: read-out: α2c pEC50 (converted)
T3 construct: The entire coding region of α2c (1383 bp), including 2 bp of 5′ UT and 400 bp of 3′ UT; expressed in transfected cells; host or cells: LM(tk−) cells (L-α2c, ATCC CRL-11181), vector pCEXV-3
T3 sequence (P18825 1-462): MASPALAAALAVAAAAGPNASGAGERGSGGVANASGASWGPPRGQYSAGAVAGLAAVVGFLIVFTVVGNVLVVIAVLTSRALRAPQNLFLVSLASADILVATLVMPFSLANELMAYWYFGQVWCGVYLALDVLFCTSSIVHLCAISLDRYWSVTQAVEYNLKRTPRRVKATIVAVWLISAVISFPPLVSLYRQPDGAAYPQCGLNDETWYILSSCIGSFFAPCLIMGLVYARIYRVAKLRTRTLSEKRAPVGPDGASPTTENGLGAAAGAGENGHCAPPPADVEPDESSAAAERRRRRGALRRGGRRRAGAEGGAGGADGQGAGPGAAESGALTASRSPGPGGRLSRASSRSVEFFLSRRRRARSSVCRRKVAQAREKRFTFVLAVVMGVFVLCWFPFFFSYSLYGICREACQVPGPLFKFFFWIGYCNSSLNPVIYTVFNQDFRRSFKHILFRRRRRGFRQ
Method: as §1, §2, §3

[6] = biological target: T3, human α2c adrenergic receptor; assay: Equilibrium competition binding, [3H]rauwolscine, cloned human α2c; conditions: cloned human α2c, membrane preparations, [3H]rauwolscine; read-out: α2c pKi (converted)
Method: as §1, §2
The insert housing this coding region was a 1.8 kb Ncol/EcoR1 human spleen genomic fragment which was end-blunted by either T4 polymerase or Klenow fragment of DNA polymerase. Stable cell lines were selected as described above.
as §4

SMILES | EC50 [1] [nM] | α2a IA (Intrinsic Activity) [1] | α2b IA (Intrinsic Activity) [2] | EC50 [2] [nM] | Ki [3] [nM] | Ki [4] [nM] | α2c IA (Intrinsic Activity) [5] | EC50 [5] [nM] | Ki [6] [nM] | melting point [°C]
Brc1nc2c(c(Br)c1NC1=NCCN1)CCC2 [Example 29, 2-(2,4-Dibromo-5,6-cyclopentenopyrid-3-yl)amino-2-imidazoline] | 15.8 | (1.00) | (0.40) | 91.2 | 14.8 | 51.3 | (1.00) | 13.8 | 251 | 
c1cc2c(cc1NC1=NCCN1)CCC2 [Example 1, 2-(5-Indanylamino)-2-imidazoline] | 14.8 | (0.48) | (0.53) | 36.3 | 1.15 | 2.88 | (1.00) | 11.5 | 13.8 | 41 to 42
